{"source": "patent US9617263B2", "about": "“Phenyl-triazolo-pyridine compounds” (Eli Lilly and Company, priority 2014, dated 2017)", "key": {"Zucker fa/fa rats": {"tested_on": "Zucker fa/fa rats", "experiment": "Acute oral glucose tolerance test (OGTT)", "assay_type": "in vivo, rat", "method": "OGTTs are performed in Zucker fa/fa rats, a rodent model of insulin resistance, after 1 and 21 days of orally administered material at 1.0, 3.0 and 10 mg/kg. TAK875 at 1 mg/kg served as the positive control. The OGTTs are performed one hour post compound administration with blood samples taken for determination of glucose and insulin levels at 10, 20, 40, 60, and 120 minutes post glucose administration."}, "human GPR40 (hGPR40)": {"molecular_target": "T1, human GPR40 (hGPR40) (Homo sapiens, UniProt O14842)", "T1 construct": "expressed in transfected cells; host or cells: HEK293 (membranes)", "T1 sequence (O14842 whole entry)": "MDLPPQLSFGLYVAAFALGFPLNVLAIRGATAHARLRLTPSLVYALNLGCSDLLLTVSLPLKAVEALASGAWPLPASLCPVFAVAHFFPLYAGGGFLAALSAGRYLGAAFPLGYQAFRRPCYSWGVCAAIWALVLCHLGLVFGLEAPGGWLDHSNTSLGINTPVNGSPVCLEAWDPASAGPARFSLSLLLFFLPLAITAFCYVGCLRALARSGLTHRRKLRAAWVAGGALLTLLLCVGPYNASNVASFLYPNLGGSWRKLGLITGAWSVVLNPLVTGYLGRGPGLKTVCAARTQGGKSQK", "experiment": "Radioligand competition binding with [3H]TAK-875, HEK293 membranes", "settings": "5 nM [3H]TAK-875; Cheng-Prusoff; Mean±SEM", "excerpt": "Competition curves are plotted as the percent specific inhibition versus concentration of compound and analyzed using a four parameter nonlinear regression fit with variable slope. […] See Cheng, Y. and Prusoff, W. H. (1973) “Relationship between the inhibition constant (Ki) and the concentration of inhibitor which causes 50 percent inhibition (IC50) of an enzymatic reaction,” Biochem Pharmacol 22(23):3099-3108. (Mean±SEM; SEM=standard error of the mean.)."}, "hGPR40": {"molecular_target": "hGPR40 (Homo sapiens, UniProt O14842)", "sequence (O14842 whole entry)": "as above", "experiment": "Calcium Flux Primary Assay (FLIPR, Calcium 4 Dye)", "assay_type": "cell-based", "design": "expressed in transfected cells; host or cells: HEK293", "settings": "HEK293 cells over expressing human GPR40; Mean±SEM", "method": "HEK293 cells over expressing the human GPR40 cDNA maintained in Dulbecco's modified Eagle's medium with F12 medium in 3:1 ratio supplemented with 10% FBS and 800 μg/ml geneticin at 37° C. and 5% CO2 are employed for the study. Agonist assays are performed using a Calcium 4 Dye assay kit (Molecular Devices) in the presence or absence of 0.1% fatty acid free BSA in the assay buffer (1×HBSS (Hank's Balanced Salt Solution) & 20 mM HEPES (4-(2-hydroxyethyl)-1-piperazineethanesulfonic acid). Receptor activation is measured as an increase in intracellular calcium using the Fluorometric Imaging Plate Reader (FLIPR). Maximum change in fluorescence over the base line is used to determine the agonist response. The EC50 value of the compound is calculated using Excel Fit software (version 4; IDBS) by plotting concentration vs relative fluorescence units (RFUs)."}}}
{"smiles": "CC#C[C@@H](CC(=O)O)c1ccc(OCc2cc(-c3ccccc3C)cn3ncnc23)cc1", "note": "[Example 1, (S)-3-[4-(6-o-Tolyl-[1,2,4]triazolo[1,5-a]pyridin-8-ylmethoxy)-phenyl]-hex-4-ynoic acid]", "values": [{"measurement": "ED90 for glucose lowering", "setting": "Zucker fa/fa rats; oral", "result": 3.3, "unit": "mg/kg"}, {"measurement": "Insulin AUCs during the OGTTs", "setting": "Zucker fa/fa rats; oral 1, 3, 10 mg/kg, values not statistically significant", "result": "dose dependent elevation"}, {"measurement": "AUCs for glucose lowering", "setting": "Zucker fa/fa rats; oral, Example 1 at 1, 3 and 10 mg/kg, TAK875 at 1 mg/kg, p<0.05", "result": "statistically significant"}, {"measurement": "Ki", "setting": "human GPR40 (hGPR40)", "result": 0.0246, "unit": "µM"}, {"measurement": "EC50", "setting": "hGPR40", "result": 0.146, "unit": "µM"}]}
